Measurements published in patent US20230220481A1, “Method for Determining Sensitivity to 2,2'-Dithio-bis-Ethane Sulfonate” (Lantern Pharma Inc., priority 2020, published 2023).

Tests used:
[1] = tested on: Non-small cell lung cancer cell line HCC827; assay: Gene expression level changes by whole transcriptome profiling (RNAseq) in HCC827 cells; format: cell-based; details: 2 h treatment, 1 mM and 15 mM, versus untreated control
Text: Another embodiment includes a method for treating or determining the sensitivity of non-small cell cancer to a 2,2′-dithio-bis-ethane sulfonate treatment by assessing the level of NRF2 (SEQ ID NO: 1) expression and at least one gene selected from the group consisting of: NQO1 (SEQ ID NO: 2), PHGDH (SEQ ID NO: 3), HMOX1 (SEQ ID NO: 4), SLC7A11 (SEQ ID NO: 5), SRXN1 (SEQ ID NO: 6), SOX2(SEQ ID NO: 7), GPX2 (SEQ ID NO: 8), GPX3 (SEQ ID NO: 9), and GPX7(SEQ ID NO: 10). For illustration, non-small cell lung cancer cell line HCC827 was treated for 2 h with 2,2′-dithio-bis-ethane sulfonate alone at concentrations of 1 mM and 15 mM and gene expression level changes were measured by whole transcriptome profiling using RNAseq. A control sample with no treatment for the same duration was used as the baseline gene expression level. A greater than 1.5 to 2-fold expression level change can be indicative of 2, 2′-dithio-bis-ethane sulfonate sensitivity.
Non-small cell lung cancer cell line HCC827 was treated for 2 h with disodium 2,2′-dithio-bis-ethane sulfonate alone at concentrations of 1 mM and 15 mM and gene expression level changes were measured by whole transcriptome profiling using RNAseq. A control sample with no treatment for the same duration was used as the baseline gene expression level. […]

[2] = tested on: nuclear factor erythroid 2-related factor 2 (Nrf2); assay: Induction of nuclear expression of Nrf2 in NGF-differentiated PC12 cells, western blotting; format: cell-based, rat; details: PC12 neuron-like cells
Experimental: PC12 cells were suspended in DMEM containing 7.5% inactivated fetal bovine serum and 7.5% inactivated horse serum. After seeding onto a type I collagen-coated 100 mm culture dish, these cells were incubated for 7 days in the presence of 100 ng/mL NGF for priming. Culture medium was then replaced with Neurobasal™ medium supplemented with N-2 supplement and 2 mM glutamine containing NGF 30 ng/mL, and cells were incubated again for 3 days for differentiation into neuron-like cells. Next, these cells were treated with 2,2′-dithio-bis-ethane sulfonate 6 mM for 1, 2, 4 and 8 hours, or with a known Nrf2 activator, tert-butylhydroquinone (t-BHQ) 30 μM for 3 hours. Nuclear proteins were then extracted from the cells for detection of nuclear expression of Nrf2 by western blotting.

O=S(=O)([O-])CCSSCCS(=O)(=O)[O-].[Na+].[Na+] [2,2′-dithio-bis-ethane sulfonate, disodium 2,2′-dithio-bis-ethane sulfonate]
gene expression level change of NRF2 biomarker genes (NQO1, PHGDH, HMOX1, SLC7A11, SRXN1, SOX2, GPX2, GPX3, GPX7) [1]: nine genes are upregulated
time at which nuclear expression of Nrf2 started after the start of treatment ([2]; 6 mM): 1 h
time until which apparent expression of Nrf2 persisted after the start of treatment ([2]; 6 mM): 8 h
induction of nuclear expression of Nrf2 ([2]; 6 mM, 1, 2, 4 and 8 hours): induction of nuclear expression of Nrf2

CC(C)(C)c1cc(O)ccc1O [t-BHQ, tert-butylhydroquinone, reference compound]
induction of nuclear expression of Nrf2 ([2]; 30 μM, 3 hours): induction of nuclear expression of Nrf2
